Measured values from patent publication US20250270170A1, “2,3-DIMETHOXY-5-METHYL-1,4-BENZOQUINONE ALKYL ALCOHOL DERIVATIVE AND USE THEREOF” (BEIJING ANJIANXI BIO-MEDICAL TECHNOLOGY CO., LTD., priority 2021, published 2025).

Tests used:
NCI-H460 cells = assay: CCK-8 cell proliferation assay, NCI-H460; type: cell-based; conditions: Homo sapiens
Description: (1) Cells in the logarithmic growth phase were taken and digested to make a cell suspension. 20 μl of the cell suspension was taken with a pipette, and added to a CountStar disposable cell counting plate for cell counting, and the counting results were recorded. The cell concentration was adjusted to 30,000 to 40,000 cells/ml (note: different cells have different growth rates, so the number of cells in each well was slightly different).
(2) A 96-well plate was taken. Since the wells in the outermost circle of the culture plate were easy to evaporate and dry, causing inaccurate volumes, and increasing errors, 100 μl of PBS was added to the wells in the outermost circle, which were not used as assay wells.
(3) The adjusted cell suspension was added to the 96-well plate, with 100 μl in each well, resulting approximately 3000 to 4000 cells in each well. The plate was placed in a 37° C. incubator under the condition of 5% CO2 for cell culture, and the drug was added when the cells adhered to the wall.
(4) Drug dilution. The concentration gradient was set as: 0 μM, 10 μM, 50 μM, 100 μM, and 200 μM, with 3 duplicates for each concentration. In addition, blank control wells containing only culture medium and drug without cells were also set.
(5) The plate was incubated in the incubator for 24 h, 48 h and 72 h, respectively. After reaching the set time point, the 96-well plate was taken out from the incubator, and 10 μl of CCK-8 reagent was added to each well, taking care to avoid bubbles. The plate was shaked to mix evenly, and put back into the incubator to culture for another 2 hours.
(6) To detect the absorbance, the 96-well plate was placed in a […], and the absorbance value (OD value) at 450 nm was detected. The data was recorded. Cell viability=(OD value of the assay well−OD value of the blank control well)/(OD value of the solvent control well−OD value of the blank control well)×100%.
(7) The data was imported into GraphPad Prism5 for plotting. The IC50 values were calculated, and the curves were drawn.

A549 cells = assay: Cell EDU proliferation assay, A549; type: cell-based, human; conditions: 150 μM
Description: The compound of formula (I) at a concentration of 150 μM was co-cultured with the cells for 42 h, and then the FBS concentration in the FBS stimulation well was increased to 20%. The cells were cultured for another 6 h, and then detected using a Cell-Light EDUApollo567 kit.
(1) Cells in the logarithmic growth phase were taken, and inoculated into a 24-well culture plate at 1×10^4 cells per well. The culture plate was cultured in a 37° C. incubator under the condition of 5% CO2, and drug was added according to the assay design when the cells adhered to the wall.
(2) After the drug treatment, the Cell-Light EDU Apollo567 kit was taken out. The reagent A in the kit was diluted with 1640 complete culture medium at a ratio of 1000:1 to prepare a 50 μM EDU culture medium, 300 μl of which was configured to each well of the 24-well plate. The 24-well plate was taken out from the incubator, and the original culture medium was aspirated with a vacuum aspirator. […]
(12) 150 μl of PBS was added to each well to wash once, and the PBS was discarded. Then, 200 μl of PBS was added, and the plate was placed on an inverted fluorescence microscope to take pictures. 6 fields of view were taken for each well under a 200× field of view, and the proportion of EDU-positive cells among 100 cells was calculated. […]

COC1=C(OC)C(=O)C(CCCCCCCCCCOC(=O)Cc2c(C)n(C(=O)c3ccc(Cl)cc3)c3ccc(OC)cc23)=C(C)C1=O [compound of formula (I)]
IC50 (NCI-H460 cells; 24 h): 125.3 ± 1.01 µM
IC50 (NCI-H460 cells; 48 h): 66.4 ± 0.87 µM
IC50 (NCI-H460 cells; 72 h): 48.5 ± 1.12 µM
proportion of proliferating cells (EDU) (A549 cells; 48 hours, vs CTL (0 μM)): significantly reduced
cell proliferation under FBS stimulation (EDU) (A549 cells; FBS increased to 20% for last 6 h): can inhibit the cell proliferation effect
